# Experimental data published in US10960013B2, “J-series prostaglandin-ethanolamides as novel therapeutics for skin and/or oral disorders” (East Carolina University, priority 2016, dated 2021).
# “Also recorded” adds a separate entry of the source.
# Legend:
# [1] = system: Melanoma cells subcutaneously implanted in the flank region of C57BL/6 mice; assay: Subcutaneous mouse tumor model, tumor weight; type: in vivo; details: 0.5 mg/kg for 5 days; compared to vehicle and untreated animals; P<0.01
# Procedure: Tumors grown in C57BL/6 mice were either untreated (UT), vehicle treated (VEH), or treated with 0.5 mg/kg 15dPMJ2 for 5 days. Tumor weights were determined. #P<0.01 compared to untreated; *P<0.01 compared to vehicle treated (one-way ANOVA with Tukey's post-hoc test).
# (§1) To assess the in vivo antineoplastic action of 15dPMJ2, the subcutaneous mouse tumor model was utilized. Melanoma cells were subcutaneously implanted in the flank region of C57BL/6 mice and treated with 0.5 mg/kg 15dPMJ2, vehicle [0.1% DMSO in phosphate buffered saline (PBS)], or were untreated. […] To determine if 15dPMJ2 induced ER stress the expression of CHOP10 was detected in the tumor sections.
# [2] = system: tumorigenic (JWF2) and non-tumorigenic (HaCaT) cells; assay: Cell viability (MTS) of tumorigenic and non-tumorigenic keratinocytes treated with 15dPMJ2; type: cell-based; details: 12 hours
# Procedure: Tumorigenic and non-tumorigenic keratinocytes were treated with different concentrations of 15dPMJ2, vehicle, or were untreated for 12 hours. Cell viability was detected by conducting MTS experiments. Data represent the mean±SEM of three independent experiments and are expressed as the percent of the untreated cells. *P<0.01.
# as §1
# CHOP10 = CHOP10 expression (ER stress) in excised tumor sections; type: in vivo, C57BL/6 mice; details: 0.5 mg/kg for 5 days
# Procedure: as §1
compound,measurement,setting,value
"CCCCC/C=C/C=C1/C(=O)C=CC1C/C=C/CCCC(=O)NCCO (stereo not shown) [15dPMJ2, 15-deoxy Δ^12,14-prostagladin J2-ethanolamide]",tumor weight / solid tumor growth,[1],statistically significant reduction in tumor weight; also recorded: inhibits solid tumor growth
same,toxicity towards tumorigenic keratinocytes relative to non-tumorigenic keratinocytes,"[2]; at 5 μM, JWF2 vs HaCaT, MTS cell viability",4 fold
same,"selective toxicity (cell viability, tumorigenic vs non-tumorigenic keratinocytes)","[2]; different concentrations, MTS",selectively toxic
same,CHOP10 expression in the tumors (ER stress),CHOP10,markedly increased CHOP10 expression; also recorded: increases ER stress
